Results taken from US7795241B2, “Derivative prodrugs of ethinyl estradiol” (Warner Chilcott Company, LLC, priority 2005, dated 2010).

Columns and labels:
[1] = Stability at 40° C./75% RH, prodrug assayed for degradation to ethinyl estradiol (HPLC); assay type: physicochemical; conditions: prodrug remaining; for Assay T = 2 W: 2 weeks; for Assay T = 0: T = 0 months; for Assay T = 1 M: 1 month; for Assay T = 6 M: 6 months
Description: Solubility was performed in water. […] The time-points for stability were T=0 months, T=2 weeks, T=1 month, T=3 months and T=6 months.
The following outlines the conditions utilized for analysis of this prodrug. Analysis was conducted using High-Performance Liquid Chromatography (HPLC).
The following outlines the conditions utilized for analysis of this prodrug. Analysis was conducted using HPLC.
The following outlines the conditions utilized for analysis of the prodrug. Analysis was conducted using HPLC.

[2] = Hydrolysis to the parent drug ethinyl estradiol (0.5N NaOH, HPLC quantification); assay type: physicochemical; conditions: 5 min, prodrug solution + water + 0.5N NaOH
Description: Hydrolysis studies refer to the rate of hydrolysis to the parent drug, ethinyl estradiol. Hydrolysis was conducted in the following manner: • (1) 1 mL of a solution containing the prodrug, 2.8 mL of water and 0.1 mL of 0.5N NaOH were combined; • (2) the resulting solution was vortexed for 10 seconds; • (3) the mixture was then left to stand for specific time intervals (e.g., 5 minutes, 15 minutes, etc.); • (4) the mixture was then neutralized with 0.1 mL of a buffer; and • (5) the solutions were finally injected to quantify the disappearance of the prodrug and the formation of the parent compound.

[3] = listed as ethinyl estradiol acetoxy acetate
[4] = listed as ethinyl estradiol lactate acetate

## C#CC1(O)CC[C@H]2[C@@H]3CCc4cc(OC(=O)[C@@H]5CCCN5C(C)=O)ccc4[C@H]3CC[C@@]21C (stereo partly drawn) [Ethinyl Estradiol N-Acetyl Prolinate, ethinyl estradiol N-acetyl proline]
[1]
  Assay T = 2 W: 96.6%
  Assay T = 0: 97.2%

## ethinyl estradiol acetoxy acetate
[1]
  Assay T = 1 M: 97.0%
  Assay T = 2 W: 97.2%
  Assay T = 0: 97.8%
[1]; [3]
  Assay T = 1 M: 97%
[2]
  Hydrolysis (to ethinyl estradiol): 100% (5 min)
[2]; [3]
  Hydrolysis (to ethinyl estradiol): 100%

## ethinyl estradiol lactate-acetate
[1]
  Assay T = 1 M: 93.67%
  Assay T = 6 M: 95.89%
  Assay T = 0: 94.43%
[1]; 3 months
  Assay T = 3 M: 95.91%
[1]; [4]
  Assay T = 6 M: 95.9%
[2]
  Hydrolysis (to ethinyl estradiol): 100% (5 min)
[2]; [4]
  Hydrolysis (to ethinyl estradiol): 100%
